Experimental data as given in patent US20240131044A1, “METHOD FOR TREATING CANCER” (M.T.3, Inc., priority 2022, published 2024).

Tested on: soft tissue sarcoma developing cells (STSA-1)
Experiment: Colony formation, survival fraction of canine soft tissue sarcoma cells
Assay type: cell-based
Procedure: An anti-cancer agent and a pharmaceutical composition were administered to test cells and then the cells were cultured. Then, after colonies were formed, the number of colonies was counted. Here, samples in which the concentration of the anti-cancer agent to be administered was varied were prepared, and in each sample, the survival fraction of the cells compared with the case where cells were cultured without administration of the pharmaceutical composition was measured. Regarding the type of anti-cancer agent to be administered, a predetermined anti-cancer agent was selected depending on the type of administration target cells. Note that cells that were cultured without administration of the pharmaceutical composition and the anti-cancer agent were used as a control. Hereinafter, these steps will be described.
Here, CHO cells, V79 cells, and canine-derived cancer cells were prepared as the test cells. The CHO cells are ovarian cells derived from Chinese hamsters, and the V79 cells are fibroblasts derived from the lungs of Chinese hamsters. Melanoma developing cells (CML6M) and soft tissue sarcoma developing cells (STSA-1) were used as the cancer cells.
The cancer cells were prepared by being cultured using an αMEM culture medium supplemented with 10% serum and an antibiotic. The cancer cells were prepared such that, when the concentration of the cells in a cell suspension obtained by subjecting the cultured cells to PBS washing and trypsin treatment, the concentration was within a predetermined concentration range. Here, the predetermined concentration ranges were 300 cells/well, 100 to 150 cells/well, and 500 to 1000 cells/well for the CHO/V79 cells, the melanoma cells, and the soft tissue sarcoma cells, respectively.
Next, the cancer cells were cultured in culture environments to which the anti-cancer agent was added at various concentrations, and were then allowed to form colonies. The culture periods for colony formation were a week, 10 days, and 14 days for CHO and V79, melanoma, and soft tissue sarcoma, respectively. After colonies were formed, washing using a physiological saline solution, fixation using 100% ethanol, and staining using 0.1% crystal violet were performed, and then the number of colonies per well was counted under a microscope. Note that, here, the colony was defined as containing 50 or more cells. Moreover, mitomycin C, doxorubicin, bleomycin, camptothecin, etoposide, taxol, methyl methanesulfonate, and cisplatin were used as the anti-cancer agent.
A graph with the horizontal axis representing the concentration of the anti-cancer agent and the vertical axis representing the survival fraction was created by plotting the survival fraction measurement results relative to the SQAP administration amounts, and the effect of the addition of SQAP on the survival fraction was examined. Hereinafter, the results from each anti-cancer agent will be shown in a table and described.
Canine-derived melanoma cells and soft tissue sarcoma cells were used as the cells, and doxorubicin was used as the anti-cancer agent. The amount of the doxorubicin administered to the melanoma cell was set to 0 nM, 5 nM, 10 nM, 15 nM, 20 nM, and 25 nM. […] In Table 2, survival fractions in the case where SQAP was not administered are shown with a solid line, survival fractions in the case where SQAP was administered at a concentration of 10 μM are shown with a broken line, survival fractions in the case where SQAP was administered at a concentration of 20 μM are shown with a 1-dot chain line, and survival fractions in the case where SQAP was administered at a concentration of 30 μM are shown with a 2-dot chain line.
In the above examples, the anti-cancer agent and the pharmaceutical composition were administered to the test cells and then the cells were cultured. […]

CCCCCCCCCCCCCCCCCC(=O)OCCCO[C@H]1O[C@H](CS(=O)(=O)O)[C@@H](O)[C@H](O)[C@H]1O [SQAP, sulfoquinovosylacylpropanediol]
survival fraction (soft tissue sarcoma cells, doxorubicin 10 nM + SQAP 10 μM): about 2% | survival fraction (soft tissue sarcoma cells, doxorubicin 10 nM + SQAP 20 μM): about 2% | survival fraction (soft tissue sarcoma cells, doxorubicin 10 nM + SQAP 30 μM): about 0.7% | survival fraction (soft tissue sarcoma developing cells, SQAP 10 μM alone): about 90% | survival fraction (soft tissue sarcoma developing cells, SQAP 20 μM alone): about 75% | survival fraction (soft tissue sarcoma developing cells, SQAP 30 μM alone): about 45% | survival fraction (soft tissue sarcoma developing cells, doxorubicin 10 μM + SQAP 10 μM (as restated in Example 10)): about 2% | survival fraction (soft tissue sarcoma developing cells, doxorubicin 10 μM + SQAP 20 μM (as restated in Example 10)): about 2% | survival fraction (soft tissue sarcoma developing cells, doxorubicin 10 μM + SQAP 30 μM (as restated in Example 10)): about 0.7%
